# Read-outs that look alike come from different tables or passages of the source.
# How the values were obtained:
# [1] = tested on: German cockroach, Blattella germanica; details: cited from earlier work
# [2] = tested on: Zymoseptoria tritici (formerly Septoria tritici); assay: Translaminar activity of Azoxystrobin formulated in Entostat against Z. tritici on wheat; format: in vivo; details: control of Zymoseptoria tritici; compared with conventional formulation
# Description: • Test item type and Entostat SC contains in 300 g/L Entostat (Polyethylene contents: wax variant), with the wax component formulated with 81.8 g/L Azoxystrobin (8.18% w/w Azoxystrobin in SC) • Test item rate: The Entostat formulation was applied at a rate 2.68 L/ha delivering 219 g a.i/ha (which delivers Azoxystar's maximum label amount of active ingredient). • Reference item type Azoxystar—SC Strobilurin fungicide containing […] and contents: of Azoxystrobin (22.9 w/w Azoxystrobin in SC). • Reference item rate: Azoxystar was applied at the maximum recommended label rate (0.88 L/ha delivering 219 g a.i/ha) • Application interval: Once at wheat growth stage 12
# 200 square plastic pots (7×7×8 cm) were filled with J. Arthur Bower No. 1 seedling compost and drenched with tap water. Into each pot six spring wheat (T. aestivum cv. KWS Kielder) seeds were double sown. The pots were placed within four Secret Jardin 120 growth tents in a fully randomised block design of 40 blocks (5 pots per block). All plants were grown under a light, temperature and relative humidity (RH) regime of 16:8 light/dark, 20° C./17° C. and 80% RH. Pots were watered via capillary matting with tap water when required. No additional nutrients were supplied throughout the study. Fourteen days after sowing the six plants in each pot were reduced to three of uniform size. […]
# [3] = Azoxystrobin retention on maize seed after Heubach mechanical stress (GC-ECD); format: physicochemical
# Experimental: • Test item type and 1. Polyethylene Entostat (W3800) containing 499 mg/g contents: Azoxystrobin fungicide. • 2. Carnauba Entostat (W3738) containing 435 mg/g Azoxystrobin fungicide. • Test item rate: When using a commercial standard biological efficacy in maize is observed at […] seed. W3800 and W3738 were applied at […] of that commercial standard a.s. rate Table 1. • Application interval: Single application at the start of the study • Supplier: Entostat, Exosect, UK • Azoxystrobin, Albaugh, USA. • Storage: Pesticide cabinet in formulation laboratory, Exosect
# The independent factors were, dry powder seed treatment formulation type (W3800 and W3738) and Azoxystrobin application rate (Low, Medium, and High). Residues of the active ingredient Azoxystrobin recovered from maize before and after mechanical stress were quantified. Each treatment will be replicated ten times. Work involving the Heubach Dustmeter was conducted according to know standard procedures.
# Seeds were equilibrated in incubator 308 at 20° C.±2° C. and at 50%±10% relative humidity for at least 48 hours prior to testing.
# Treatments were weighed into sterile 1 L Duran bottles along with 500 g of maize seeds. The treatments were homogenized for 30 seconds by gently agitating using the Stuart Rotator with MIX2040 attachment. 50 maize seeds were removed from each batch, weighed, and placed in a bioassay jar for pre mechanical stress quality control analysis. One 100 g sample were removed from each batch.
# The 100 g sample was mechanically stressed in the Heubach Dustmeter (Heubach GMbh, Heubachstrasse7, 38685 Langelsheim), following the procedures outlined in TDRF311. Work involving the Heubach Dustmeter was conducted between 23° C. and 29° C. and 30% and 70% relative humidity in Bioassay Room 2. After the cycle, treated seeds were removed from the rotating drum. 50 maize seeds were removed from each batch, weighed, and placed in a bioassay jar for post mechanical stress quality control analysis.
# Azoxystrobin present on the seed samples taken before and after Heubach mechanical stress were analysed using gas chromatography with electron capture detector (GC-ECD). From these values the percentage change of Azoxystrobin a.s. retained by the seeds mechanical stress was calculated.
# Percentage Azoxystrobin retained on maize seed after mechanical stress was modelled using R (version 3.3.1). After testing for normality using a Shapiro-Wilk normality test, ANOVA was used to analyse the data linear model. Percentage Azoxystrobin retention was modelled as a function of the factors formulations type (W3800 and W3738), Azoxystrobin application rate (0.006259, 0.06259 and 0.6259 g a.s./kg seed) and interactions between the factors. Formulation W3800 at its lowest application (0.006259 g a.s./kg seed) was used as the control.
# [4] = tested on: Triticum aestivum (Spring wheat) variety KWS Alderon; assay: Translaminar (herbicidal) activity of Quizalofop-p-ethyl formulations sprayed on wheat, EPPO PP1/135 assessment; format: in vivo; details: control of volunteer wheat; compared with conventional formulation
# [5] = Loading of acetamiprid dry powder seed treatment on seeds; format: physicochemical
# [6] = cited from earlier work
smiles,measurement,setting,value
CC1(C)[C@H](C(=O)O[C@H](C#N)c2cccc(Oc3ccccc3)c2)[C@@H]1/C=C(\Cl)C(F)(F)F (racemic) [lambda-cyhalothrin],knock down period,[1]; Emulsifiable Concentrate (EC),10.33 min
same,knock down period,[1]; microencapsulated formulation,17.16 min
"CO/C=C(/C(=O)OC)c1ccccc1Oc1cc(Oc2ccccc2C#N)ncn1 [Azoxystrobin, Methyl (2E)-2-(2-{[6-(2-cyanophenoxy)pyrimidin-4-yl]oxy}phenyl)-3-methoxyacrylate]",effectiveness of Entostat matrix encapsulated formulation as foliar spray,[2],as effective as a conventional Suspension Concentrate (SC) formulation
same,less Azoxystrobin retained compared to the lowest application rate,[3]; high application rate (0.6259 g a.s./Kg),21%
same,Azoxystrobin retained of original application,"[3]; high application rate (0.6259 g a.s./Kg), across formulations",41%
same,Azoxystrobin retained of original application,"[3]; lowest application rate (0.006259 g a.s./Kg), across formulations W3800 and W3738",62%
same,less Azoxystrobin retained compared to the lowest application rate,[3]; medium application rate (0.06259 g a.s./Kg),7%
same,Azoxystrobin retained of original application,"[3]; medium application rate (0.06259 g a.s./Kg), across formulations",55%
same,dose of Azoxystrobin which remains on the surface of the maize,"[3]; medium dose, after mechanical stress",0.0346 mg·s/kg
"CCOC(=O)[C@@H](C)Oc1ccc(Oc2cnc3cc(Cl)ccc3n2)cc1 [Quizalofop-p-ethyl, ethyl (2R)-2-[4-(6-chloroquinoxalin-2-yl)oxyphenoxy]propanoate]",effectiveness of Entostat matrix encapsulated formulation as foliar spray,[4],as effective as a conventional Suspension Concentrate (SC) formulation
C/C(=N\C#N)N(C)Cc1ccc(Cl)nc1 [acetamiprid],relative percentage loading on seeds,[5]; after 10 fold decrease in powder application,80%
same,relative percentage loading on seeds,[5]; before 10 fold decrease in powder application,52%
CCOP(=S)(OCC)Oc1nc(Cl)c(Cl)cc1Cl [chlorpyrifos],time to release 50% of the insecticide,"[6]; encapsulated formulation, sodium alginate and starch microspheres",5 days
same,time to release 50% of chlorpyrifos,[6]; free chlorpyrifos,1 days
